One assay concerns the target T1, FLT3 (Homo sapiens, UniProt P36888).
T1 construct: made in house
T1 sequence (P36888 27-993): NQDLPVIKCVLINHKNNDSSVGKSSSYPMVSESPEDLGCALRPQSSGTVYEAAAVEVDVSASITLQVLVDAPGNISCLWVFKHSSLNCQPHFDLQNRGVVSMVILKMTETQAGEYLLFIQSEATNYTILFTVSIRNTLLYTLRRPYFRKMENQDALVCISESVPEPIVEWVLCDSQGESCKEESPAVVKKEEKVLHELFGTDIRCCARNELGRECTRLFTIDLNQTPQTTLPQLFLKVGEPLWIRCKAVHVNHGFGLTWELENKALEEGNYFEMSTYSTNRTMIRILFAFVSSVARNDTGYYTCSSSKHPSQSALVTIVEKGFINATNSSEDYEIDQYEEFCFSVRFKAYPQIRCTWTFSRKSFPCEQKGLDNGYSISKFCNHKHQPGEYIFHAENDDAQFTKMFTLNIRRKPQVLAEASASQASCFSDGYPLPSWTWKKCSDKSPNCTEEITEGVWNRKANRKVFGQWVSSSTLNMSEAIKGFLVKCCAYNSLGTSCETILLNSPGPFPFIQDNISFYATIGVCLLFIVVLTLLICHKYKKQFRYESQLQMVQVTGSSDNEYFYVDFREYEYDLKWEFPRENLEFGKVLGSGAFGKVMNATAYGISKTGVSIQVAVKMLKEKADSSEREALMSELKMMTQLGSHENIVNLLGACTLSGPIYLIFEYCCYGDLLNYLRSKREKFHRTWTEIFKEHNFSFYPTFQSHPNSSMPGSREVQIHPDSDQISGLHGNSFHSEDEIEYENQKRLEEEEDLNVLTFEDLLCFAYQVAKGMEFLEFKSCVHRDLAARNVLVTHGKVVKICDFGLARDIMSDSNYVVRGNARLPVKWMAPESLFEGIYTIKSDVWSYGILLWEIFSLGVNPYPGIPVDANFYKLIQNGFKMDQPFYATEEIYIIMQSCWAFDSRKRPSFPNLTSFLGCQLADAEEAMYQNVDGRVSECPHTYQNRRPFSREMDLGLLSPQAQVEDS
Put plainly: Competition binding assay, FLT3 Kd. The note with it: competition binding. The procedure, abridged: (§1)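 Read-out is quantitative PCR of kinase recovered from affinity beads after competition with test compound. Binding reached equilibrium over 1 hour at room temperature; Kd values come from eleven-point threefold serial dilutions.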

For a further assay, the target named is T2, PDGFRβ (Homo sapiens, UniProt P09619).
T2 construct: made in house
T2 sequence (P09619 33-1106): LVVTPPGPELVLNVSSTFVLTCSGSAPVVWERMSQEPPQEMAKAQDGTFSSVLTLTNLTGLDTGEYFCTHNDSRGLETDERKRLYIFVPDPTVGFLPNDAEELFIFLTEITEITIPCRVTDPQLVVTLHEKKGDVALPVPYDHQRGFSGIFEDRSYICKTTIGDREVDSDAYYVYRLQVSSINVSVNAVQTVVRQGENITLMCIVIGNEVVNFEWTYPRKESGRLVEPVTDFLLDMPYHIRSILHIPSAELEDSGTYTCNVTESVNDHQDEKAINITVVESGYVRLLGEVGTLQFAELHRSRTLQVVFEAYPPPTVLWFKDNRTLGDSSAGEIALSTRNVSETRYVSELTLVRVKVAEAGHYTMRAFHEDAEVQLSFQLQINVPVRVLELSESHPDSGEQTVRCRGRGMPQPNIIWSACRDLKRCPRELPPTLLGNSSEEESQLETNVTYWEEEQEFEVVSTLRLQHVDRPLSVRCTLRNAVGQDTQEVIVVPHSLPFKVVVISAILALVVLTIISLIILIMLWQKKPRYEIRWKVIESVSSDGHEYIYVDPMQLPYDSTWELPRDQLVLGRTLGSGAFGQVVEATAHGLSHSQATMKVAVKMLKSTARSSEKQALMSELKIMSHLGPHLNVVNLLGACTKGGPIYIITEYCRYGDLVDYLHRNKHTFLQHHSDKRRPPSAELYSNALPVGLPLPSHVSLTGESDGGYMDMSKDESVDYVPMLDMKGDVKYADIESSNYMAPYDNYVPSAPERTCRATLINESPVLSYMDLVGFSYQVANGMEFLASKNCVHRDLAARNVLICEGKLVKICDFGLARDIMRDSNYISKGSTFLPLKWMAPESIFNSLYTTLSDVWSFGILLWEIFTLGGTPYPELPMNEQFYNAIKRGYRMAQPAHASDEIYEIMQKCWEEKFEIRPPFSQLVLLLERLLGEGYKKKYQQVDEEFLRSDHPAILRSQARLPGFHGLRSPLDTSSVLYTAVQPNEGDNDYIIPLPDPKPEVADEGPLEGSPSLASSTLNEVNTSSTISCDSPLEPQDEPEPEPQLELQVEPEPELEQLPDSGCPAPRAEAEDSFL
Put plainly: Competition binding assay, PDGFRβ Kd. To be noted: competition binding. In short, it runs like this: as §1

In assay [1] the target is kinase panel containing either 386 or 392 distinct kinases. Put plainly: Kinase selectivity score S10 from competition binding panel. The note with it: 10 μM, panel of 386 or 392 distinct kinases. The procedure, abridged:
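Compounds at 10 μM competed against immobilised affinity ligands for T7 phage-fused or HEK-293-expressed DNA-tagged kinases, 1 h at room temperature; bound kinase eluted and quantified by qPCR. S10 = fraction of distinct non-mutant kinases with percent of DMSO control below 10.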

Another assay addresses T3, KIT (Homo sapiens, UniProt P10721).
T3 construct: made in house
Put plainly: Competition binding assay, KIT Kd. The note with it: competition binding. The procedure, abridged: as §1

A further assay has as its target CSF1R (Homo sapiens, UniProt P07333). The assay can be described thus: Competition binding assay, CSF1R Kd. Details: made in house. The note with it: competition binding. In short, it runs like this:
as §1

T3 sequence (P10721 26-976): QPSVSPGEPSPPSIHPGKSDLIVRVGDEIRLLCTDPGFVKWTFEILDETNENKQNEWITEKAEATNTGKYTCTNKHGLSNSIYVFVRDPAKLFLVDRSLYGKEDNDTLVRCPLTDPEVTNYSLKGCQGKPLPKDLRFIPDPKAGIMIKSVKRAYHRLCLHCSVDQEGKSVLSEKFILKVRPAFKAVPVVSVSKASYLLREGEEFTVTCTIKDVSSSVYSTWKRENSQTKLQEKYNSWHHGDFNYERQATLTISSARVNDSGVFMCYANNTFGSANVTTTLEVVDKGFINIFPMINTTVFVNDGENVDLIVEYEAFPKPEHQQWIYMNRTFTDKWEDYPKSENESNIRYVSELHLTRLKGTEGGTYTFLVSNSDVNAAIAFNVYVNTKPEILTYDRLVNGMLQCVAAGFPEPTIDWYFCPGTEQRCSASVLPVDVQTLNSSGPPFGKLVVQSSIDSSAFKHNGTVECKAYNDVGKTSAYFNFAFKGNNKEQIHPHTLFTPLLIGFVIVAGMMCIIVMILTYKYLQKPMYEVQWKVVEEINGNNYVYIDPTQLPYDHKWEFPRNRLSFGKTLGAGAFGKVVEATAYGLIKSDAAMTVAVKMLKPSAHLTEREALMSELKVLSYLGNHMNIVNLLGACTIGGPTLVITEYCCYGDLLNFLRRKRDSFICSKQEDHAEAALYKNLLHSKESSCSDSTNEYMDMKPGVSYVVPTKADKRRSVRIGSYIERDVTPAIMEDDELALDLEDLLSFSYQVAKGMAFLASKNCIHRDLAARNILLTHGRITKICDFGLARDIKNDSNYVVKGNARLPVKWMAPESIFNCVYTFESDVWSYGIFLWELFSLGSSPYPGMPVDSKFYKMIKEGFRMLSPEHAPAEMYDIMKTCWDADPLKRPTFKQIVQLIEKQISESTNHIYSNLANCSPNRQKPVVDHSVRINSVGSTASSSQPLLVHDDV
Sequence of CSF1R (P07333 20-972): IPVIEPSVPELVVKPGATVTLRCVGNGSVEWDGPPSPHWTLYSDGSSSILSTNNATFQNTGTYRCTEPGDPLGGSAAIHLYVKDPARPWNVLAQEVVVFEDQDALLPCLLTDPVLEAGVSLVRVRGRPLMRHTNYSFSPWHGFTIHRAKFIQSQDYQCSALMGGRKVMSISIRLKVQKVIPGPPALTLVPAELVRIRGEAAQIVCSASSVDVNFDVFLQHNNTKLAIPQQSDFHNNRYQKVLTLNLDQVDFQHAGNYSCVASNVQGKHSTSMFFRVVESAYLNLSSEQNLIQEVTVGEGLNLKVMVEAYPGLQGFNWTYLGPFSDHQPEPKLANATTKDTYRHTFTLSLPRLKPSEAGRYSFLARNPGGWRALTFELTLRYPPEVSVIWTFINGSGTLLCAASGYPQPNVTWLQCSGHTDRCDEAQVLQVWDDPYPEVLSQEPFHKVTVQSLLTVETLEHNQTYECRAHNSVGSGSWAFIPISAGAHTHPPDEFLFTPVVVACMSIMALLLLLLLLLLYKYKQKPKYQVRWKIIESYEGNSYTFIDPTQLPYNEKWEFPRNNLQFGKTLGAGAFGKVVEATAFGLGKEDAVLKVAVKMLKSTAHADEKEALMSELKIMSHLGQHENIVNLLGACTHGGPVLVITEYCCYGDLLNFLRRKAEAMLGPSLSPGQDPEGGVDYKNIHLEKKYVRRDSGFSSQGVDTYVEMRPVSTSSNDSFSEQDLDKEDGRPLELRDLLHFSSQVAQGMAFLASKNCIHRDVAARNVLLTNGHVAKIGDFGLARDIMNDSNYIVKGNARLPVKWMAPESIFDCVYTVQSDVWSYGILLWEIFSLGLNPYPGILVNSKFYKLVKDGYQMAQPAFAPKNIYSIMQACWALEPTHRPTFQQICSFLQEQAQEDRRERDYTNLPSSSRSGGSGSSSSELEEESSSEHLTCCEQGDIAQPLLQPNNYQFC

A word on the Kd: it is the equilibrium constant for the complex coming apart. The low end stands for higher affinity, the high end for lower affinity. With `CC(C)(O)C#Cc1cnc2c(c1)ncn2Cc1ccc2nc(N[C@@H]3CCCC[C@H]3O)sc2c1` [Example 104, (1R,2R)-2-((6-((6-(3-hydroxy-3-methylbut-1-yn-1-yl)-3H-imidazo[4,5-b]pyridin-3-yl)methyl)benzo[d]thiazol-2-yl)amino)cyclohexanol], the Kd on FLT3 was not above 200 nM; at PDGFRβ it was not above 50 nM; on KIT, not above 100 nM; on CSF1R, not above 5 nM. The “Kinase specificity S(10)” value in assay [1] is “A (A≤0.01)”.

As for `O[C@@H]1CCCC[C@H]1Nc1nc2ccc(Cn3cnc4cnc(C(F)(F)F)nc43)cc2s1` [Example 105, (1R,2R)-2-((6-((2-(trifluoromethyl)-9H-purin-9-yl)methyl)benzo[d]thiazol-2-yl)amino)cyclohexanol], the dissociation constant Kd on FLT3 lay in the range of 200 to 1000 nM; on PDGFRβ, 500 to 2000 nM; on KIT, 500 to 2000 nM; on CSF1R, 5 to 20 nM. Moreover, in assay [1], the “Kinase specificity S(10)” value is “A (A≤0.01)”.

For the compound `O[C@@H]1CCCC[C@H]1Nc1nc2ccc(Cc3cnc4ccc(Br)nn34)cc2s1` [Example 177, (1R,2R)-2-((6-((6-bromoimidazo[1,2-b]pyridazin-3-yl)methyl)benzo[d]thiazol-2-yl)amino)cyclohexanol], the Kd is not above 200 nM on FLT3, not above 50 nM on PDGFRβ, not above 100 nM at KIT and not above 5 nM on CSF1R. The “Kinase specificity S(10)” value in assay [1] is recorded as “C (C>0.02)”.

With `CN1CCN(c2ccc3ncc(Cc4ccc5nc(N[C@@H]6CCCC[C@H]6O)sc5c4)n3n2)CC1` [Example 178, (1R,2R)-2-((6-((6-(4-methylpiperazin-1-yl)imidazo[1,2-b]pyridazin-3-yl)methyl)benzo[d]thiazol-2-yl)amino)cyclohexanol], the Kd at FLT3 was 200 to 1000 nM; at PDGFRβ, 500 to 2000 nM; at KIT it was 500 to 2000 nM; at CSF1R it was 5 to 20 nM. In addition, the “Kinase specificity S(10)” value in assay [1] was “B (0.01<B≤0.02)”.

As to `OC[C@H]1CC[C@H](Nc2nc3ccc(Cn4cnc5cc(F)cnc54)cc3s2)CC1` [Example 179, (trans-4-((6-((6-fluoro-3H-imidazo[4,5-b]pyridin-3-yl)methyl)benzo[d]thiazol-2-yl)amino)cyclohexyl)methanol], the Kd is 1000 to 5000 nM at FLT3, not above 50 nM on PDGFRβ, not above 100 nM on KIT and 5 to 20 nM at CSF1R. The “Kinase specificity S(10)” value in assay [1] is given as “B (0.01<B≤0.02)”.

For the compound `OC[C@H]1CC[C@@H](Nc2nc3ccc(Cn4cnc5cc(F)cnc54)cc3s2)CC1` [Example 180, (cis-4-((6-((6-fluoro-3H-imidazo[4,5-b]pyridin-3-yl)methyl)benzo[d]thiazol-2-yl)amino)cyclohexyl)methanol], the Kd at FLT3 is 1000 to 5000 nM; on PDGFRβ, 50 to 500 nM; at KIT, 100 to 500 nM; at CSF1R, 20 to 50 nM. For the same compound, the “Kinase specificity S(10)” value in assay [1] is “A (A≤0.01)”.

Turning to `CS[C@@H]1CCCC[C@H]1Nc1nc2ccc(Cn3cnc4cc(F)cnc43)cc2s1` [Example 181, 6-((6-fluoro-3H-imidazo[4,5-b]pyridin-3-yl)methyl)-N-((1R,2R)-2-(methylthio)cyclohexyl)benzo[d]thiazol-2-amine], the Kd on FLT3 was 1000 to 5000 nM; at PDGFRβ, not above 50 nM; on KIT it was 100 to 500 nM; at CSF1R it was 5 to 20 nM. Also, the “Kinase specificity S(10)” value in assay [1] is “B (0.01<B≤0.02)”.

As for `O[C@@H]1CCCC[C@H]1Nc1nc2ccc(Cn3cnc4cc(OC5COC5)ccc43)cc2s1` [Example 182, (1R,2R)-2-((6-((5-(oxetan-3-yloxy)-1H-benzo[d]imidazol-1-yl)methyl)benzo[d]thiazol-2-yl)amino)cyclohexanol], the Kd at FLT3 is 200 to 1000 nM; on PDGFRβ, 50 to 500 nM; at KIT it was 100 to 500 nM; on CSF1R, not above 5 nM. The “Kinase specificity S(10)” value in assay [1] was “A (A≤0.01)”.

Regarding `C=Cc1ccc2c(c1)ncn2Cc1ccc2nc(N[C@@H]3CCCC[C@H]3O)sc2c1` [Example 183, (1R,2R)-2-((6-((5-vinyl-1H-benzo[d]imidazol-1-yl)methyl)benzo[d]thiazol-2-yl)amino)cyclohexanol], the Kd at FLT3 is 200 to 1000 nM; on PDGFRβ, 50 to 500 nM; on KIT, not above 100 nM; on CSF1R, not above 5 nM. Also, in assay [1], the “Kinase specificity S(10)” value is reported as “B (0.01<B≤0.02)”.

On to `O[C@@H]1CCCC[C@H]1Nc1nc2ccc(Cn3cnc4cc(C5=CCCCC5)ccc43)cc2s1` [Example 184, (1R,2R)-2-((6-((5-(cyclohex-1-en-1-yl)-1H-benzo[d]imidazol-1-yl)methyl)benzo[d]thiazol-2-yl)amino)cyclohexanol], for which the Kd was 200 to 1000 nM on FLT3, 50 to 500 nM on PDGFRβ, not above 100 nM at KIT and 5 to 20 nM at CSF1R. For the same compound, in assay [1], the “Kinase specificity S(10)” value is “A (A≤0.01)”.

As for `Cn1cc(-c2ccc3c(c2)ncn3Cc2ccc3nc(N[C@@H]4CCCC[C@H]4O)sc3c2)c(C(F)(F)F)n1` [Example 185, (1R,2R)-2-((6-((5-(1-methyl-3-(trifluoromethyl)-1H-pyrazol-4-yl)-1H-benzo[d]imidazol-1-yl)methyl)benzo[d]thiazol-2-yl)amino)cyclohexanol], the Kd is not above 200 nM at FLT3, not above 50 nM on PDGFRβ, not above 100 nM on KIT and 5 to 20 nM at CSF1R. Further, in assay [1], the “Kinase specificity S(10)” value is “B (0.01<B≤0.02)”.

As for `O[C@@H]1CCCC[C@H]1Nc1nc2ccc(Cc3cnc4cccc(F)n34)cc2s1` [Example 186, (1R,2R)-2-((6-((5-fluoroimidazo[1,2-a]pyridin-3-yl)methyl)benzo[d]thiazol-2-yl)amino)cyclohexanol], the Kd on FLT3 was not above 200 nM; at PDGFRβ, 50 to 500 nM; on KIT, 100 to 500 nM; at CSF1R, 5 to 20 nM. The “Kinase specificity S(10)” value in assay [1] is “B (0.01<B≤0.02)”.

Regarding `O[C@@H]1CCCC[C@H]1Nc1nc2ccc(Cc3cnc4cc(N5CCOCC5)ccn34)cc2s1` [Example 187, (1R,2R)-2-((6-((7-morpholinoimidazo[1,2-a]pyridin-3-yl)methyl)benzo[d]thiazol-2-yl)amino)cyclohexanol], the Kd at FLT3 was more than 5000 nM; at PDGFRβ it was 500 to 2000 nM; at KIT, more than 2000 nM; on CSF1R, 5 to 20 nM. The “Kinase specificity S(10)” value in assay [1] was “A (A≤0.01)”.

`CN1CCN(c2ccn3c(Cc4ccc5nc(N[C@@H]6CCCC[C@H]6O)sc5c4)cnc3c2)CC1` [Example 188, (1R,2R)-2-((6-((7-(4-methylpiperazin-1-yl)imidazo[1,2-a]pyridin-3-yl)methyl)benzo[d]thiazol-2-yl)amino)cyclohexanol]: the Kd on FLT3 was 1000 to 5000 nM; at PDGFRβ, 500 to 2000 nM; on KIT, more than 2000 nM; on CSF1R it was 5 to 20 nM. Further, the “Kinase specificity S(10)” value in assay [1] is “A (A≤0.01)”.

With `Cc1cc(C)c2c(c1)ncn2Cc1ccc2nc(N[C@@H]3CCCC[C@H]3O)sc2c1` [Example 189], the dissociation constant (Kd) lay in the range of 200 to 1000 nM at FLT3, 500 to 2000 nM at PDGFRβ, 500 to 2000 nM at KIT and 5 to 20 nM at CSF1R. Besides, the “Kinase specificity S(10)” value in assay [1] is “A (A≤0.01)”.

Regarding `Cc1cc(Br)cc2ncn(Cc3ccc4nc(N[C@@H]5CCCC[C@H]5O)sc4c3)c12` [Example 190, (1R,2R)-2-((6-((5-bromo-7-methyl-1H-benzo[d]imidazol-1-yl)methyl)benzo[d]thiazol-2-yl)amino)cyclohexanol], the Kd lay in the range of 200 to 1000 nM at FLT3, 500 to 2000 nM at PDGFRβ, 500 to 2000 nM at KIT and 20 to 50 nM at CSF1R. Moreover, in assay [1], the “Kinase specificity S(10)” value was “A (A≤0.01)”.

As for `Fc1cnc2c(c1)ncn2Cc1ccc2nc(Nc3ccccc3)sc2c1` [Example 191, 6-((6-fluoro-3H-imidazo[4,5-b]pyridin-3-yl)methyl)-N-phenylbenzo[d]thiazol-2-amine], the Kd was 1000 to 5000 nM at FLT3, 500 to 2000 nM at PDGFRβ, 100 to 500 nM at KIT and 20 to 50 nM on CSF1R. Further, in assay [1], the “Kinase specificity S(10)” value is “A (A≤0.01)”.

The values are drawn from US9938261B2, “Heterocyclic compounds and methods of use thereof” (AMBIT BIOSCIENCES CORPORATION, priority 2011, dated 2018).
